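Five concentrations, 48 hours, 96-well plates. At the GI50, growth is halved. TGI denotes the concentration required for complete inhibition of growth.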
Experiments:
Experiment in all cases: NCI tumour cell line growth inhibition, 48 h
OVCAR-4 ovarian = test system: OVCAR-4 ovarian
RXF 393 renal = test system: RXF 393 renal
SK-MEL-5 melanoma = test system: SK-MEL-5 melanoma
HCC-2998 colon = test system: HCC-2998 colon
A498 renal = test system: A498 renal
UACC-257 melanoma = test system: UACC-257 melanoma
CCRF-CEM leukemia = test system: CCRF-CEM leukemia
RPMI-8226 leukemia = test system: RPMI-8226 leukemia
DU-145 prostate = test system: DU-145 prostate
MDA-MB-231 breast = test system: MDA-MB-231 breast

SMILES	TGI (OVCAR-4 ovarian)	TGI (RXF 393 renal)	TGI (SK-MEL-5 melanoma)	TGI (HCC-2998 colon)	TGI (A498 renal)	TGI (UACC-257 melanoma)	TGI (CCRF-CEM leukemia)	TGI (RPMI-8226 leukemia)	GI50 (OVCAR-4 ovarian)	GI50 (RXF 393 renal)	GI50 (SK-MEL-5 melanoma)	GI50 (DU-145 prostate)	TGI (DU-145 prostate)	GI50 (HCC-2998 colon)	GI50 (A498 renal)	GI50 (UACC-257 melanoma)	GI50 (MDA-MB-231 breast)	TGI (MDA-MB-231 breast)	GI50 (CCRF-CEM leukemia)	GI50 (RPMI-8226 leukemia)
CCOc1cc2c(cc1OC)c[n+](C)c1c3cc(OC)c(OC)cc3ccc21	> 100 µM	73.5 µM	> 100 µM	> 100 µM	> 100 µM	> 100 µM	> 65.8 µM	> 100 µM	–	–	–	–	–	–	–	–	–	–	–	–
COc1ccccc1C1C(C#N)=C(N)SC(N)=C1C#N	> 100 µM	> 100 µM	> 100 µM	> 100 µM	> 100 µM	> 100 µM	70.4 µM	32.9 µM	81.1 µM	> 100 µM	90.5 µM	41.3 µM	> 100 µM	> 100 µM	> 100 µM	> 100 µM	21.6 µM	60.7 µM	26.6 µM	12.3 µM
CCOC(=O)c1ccc(N2C(=O)/C(=C/c3ccc(N(CCC#N)CCC#N)cc3)N=C2c2cc([N+](=O)[O-])ccc2Cl)cc1	> 100 µM	> 100 µM	> 100 µM	> 100 µM	–	–	> 100 µM	> 100 µM	–	–	–	–	–	–	–	–	–	–	–	–
CC1OC1C(=O)P(=O)(O)O (stereo not drawn)	> 100 µM	–	> 100 µM	> 100 µM	> 100 µM	> 100 µM	> 100 µM	> 100 µM	–	–	–	–	> 100 µM	–	–	–	–	> 100 µM	–	–
OC1CCN2Cc3ccccc3N=C12 (stereo not drawn)	> 100 µM	> 100 µM	> 100 µM	> 100 µM	> 100 µM	> 100 µM	> 100 µM	> 100 µM	–	–	–	–	> 100 µM	–	–	–	–	> 100 µM	–	–
NCC(=O)N[C@H]1c2ccsc2/C(=N/O)[C@H]1O	> 100 µM	> 100 µM	> 100 µM	> 100 µM	> 100 µM	> 100 µM	> 100 µM	–	–	–	–	–	> 100 µM	–	–	–	–	> 100 µM	–	–
Cc1ccccc1NC(=O)C(=O)C(C1OC(=O)c2ccccc21)[N+](=O)[O-] (stereo not drawn)	> 100 µM	> 100 µM	> 100 µM	> 100 µM	> 100 µM	> 100 µM	> 100 µM	> 100 µM	–	–	–	–	–	–	–	–	–	–	–	–
COC1CCC(O)C(CO)O1 (stereo not drawn)	> 100 µM	> 100 µM	> 100 µM	> 100 µM	–	> 100 µM	77.3 µM	–	–	–	–	–	–	–	–	–	–	–	–	–
C[N+](C)(N)Cc1nc(-c2ccc(Cl)cc2)no1	> 100 µM	> 100 µM	> 100 µM	–	> 100 µM	> 100 µM	> 100 µM	> 100 µM	–	–	–	–	> 100 µM	–	–	–	–	> 100 µM	–	–
O=C(O)CSC1=NCCN1	> 100 µM	> 100 µM	> 100 µM	–	> 100 µM	–	> 100 µM	> 100 µM	–	–	–	–	> 100 µM	–	–	–	–	> 100 µM	–	–

From PubChem BioAssay (NCI)
